Results: article PMC7921063, “The Effects of Genetic Mutations and Drugs on the Activity of the Thiamine Transporter, SLC19A2” (The AAPS Journal, 2021)
Like-named read-outs stand apart in the source and are kept apart here.

Target: T1, SLC19A2 (Homo sapiens, UniProt O60779)
T1 sequence (O60779 1-497): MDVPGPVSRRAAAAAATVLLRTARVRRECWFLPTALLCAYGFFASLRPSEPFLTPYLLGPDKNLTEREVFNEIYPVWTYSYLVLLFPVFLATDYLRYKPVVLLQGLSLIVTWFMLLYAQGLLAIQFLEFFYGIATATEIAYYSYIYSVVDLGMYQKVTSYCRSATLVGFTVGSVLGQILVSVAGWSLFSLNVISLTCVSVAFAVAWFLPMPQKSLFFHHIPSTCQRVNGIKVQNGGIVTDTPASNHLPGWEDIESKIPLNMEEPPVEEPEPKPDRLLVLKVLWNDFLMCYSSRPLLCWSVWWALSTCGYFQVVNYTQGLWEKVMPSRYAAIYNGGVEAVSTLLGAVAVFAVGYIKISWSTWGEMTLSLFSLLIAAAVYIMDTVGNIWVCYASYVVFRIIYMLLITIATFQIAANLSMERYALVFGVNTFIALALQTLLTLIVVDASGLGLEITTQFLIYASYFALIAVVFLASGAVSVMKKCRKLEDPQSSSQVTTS
Assay: SLC19A2 inhibitor screen: [3H]-thiamine uptake in SLC19A2-overexpressing HEK293 cells
Type: cell-based
Design: host or cells: HEK293, stably overexpressing SLC19A2 and transiently transfected with a further 500 ng wild-type plasmid
Settings: for remaining activity at 1000 µM / inhibition at 1000 µM: HEK293, 10 min; for remaining activity at 1000 µM: read-out: Average % SLC19A2 thiamine uptake; for inhibition at 1000 µM: at 1 mM, read-out: reduction in thiamine transport (designated SLC19A2 inhibitor)
Experimental: Plasmids encoding wild-type SLC19A2 and three TRMA-associated variants were generated by Genscript Inc. (Piscataway, USA). Methods for generation of stably overexpressing SLC19A2 cell lines and uptake studies have been previously described ([11], [12]). Inhibition and kinetic studies were performed in SLC19A2-overexpressing stable HEK293 cells transiently transfected with an additional 500 ng of SLC19A2 wild-type plasmid.
Prescription drugs associated with MA ([2]) in addition to others belonging to listed drug classes (e.g., proton-pump inhibitors; 63 compounds total) were screened in triplicate at 1 mM to evaluate inhibitory activity against SLC19A2. […] Each plate contained control wells exposed for 10 min (within linear range, Supplemental Figure 1) to [^3H]-thiamine (positive control), [^3H]-thiamine plus 1 mM of amprolium (negative control), and [^3H]-thiamine plus 1 mM of screened drug (3 replicates per drug). Methods have been previously described ([11]). SLC19A2 inhibitors were defined as compounds that decreased SLC19A2-mediated thiamine uptake by 50% or more at 1 mM. For compounds that met this definition, inhibition assays were conducted and IC50 values were calculated by nonlinear fitting using GraphPad Prism 7 (La Jolla, CA) ([11]).
Fig. 3 Common mechanisms of drug-induced megaloblastic anemia and SLC19A2 inhibitor drug screen workflow. A list of drugs associated with inducing megaloblastic anemia through various mechanisms was compiled (a). Each drug was dissolved to a final concentration of 1 mM in buffer containing radiolabeled [^3H] thiamine and exposed to HEK293 cells expressing SLC19A2 wild-type transporter for 10 min.

[1] = drug 1 mM, [3H]-thiamine 25 nM, 10 min, HEK293 cells expressing SLC19A2, relative to uptake without inhibitor

Compound | remaining activity at 1000 µM [1] | other results
C=C[C@H]1C[N@@]2CC[C@H]1C[C@@H]2[C@@H](O)c1ccnc2ccc(OC)cc12 [Quinidine] | 53% | –
NC(=O)NO [Hydroxyurea] | – | Average % SLC19A2 thiamine uptake [1]: 105.5%
O=C(O)c1cc(/N=N/c2ccc(S(=O)(=O)Nc3ccccn3)cc2)ccc1O [Sulfasalazine] | 101% | –
S=c1[nH]cnc2nc[nH]c12 [Mercaptopurine] | 90.5% | –
NNC(=O)c1ccncc1 [Isoniazid] | 108% | –
Cc1nc2ccc(CN(C)c3ccc(C(=O)N[C@@H](CCC(=O)O)C(=O)O)s3)cc2c(=O)[nH]1 [Raltitrexed] | 88.2% | –
Nc1ccn([C@@H]2O[C@H](CO)[C@@H](O)C2(F)F)c(=O)n1 [Gemcitabine] | 63.3% | –
CN/C(=N/CCSCc1nc[nH]c1C)NC#N [Cimetidine] | 107% | –
CC1(C)S[C@@H]2[C@H](NC(=O)C(C(=O)O)c3ccccc3)C(=O)N2[C@H]1C(=O)O (stereo partly shown) [Carbenicillin] | 90.8% | –
Cc1oncc1C(=O)Nc1ccc(C(F)(F)F)cc1 [Leflunomide] | 57.7% | –
O=C(N[C@H](CO)[C@H](O)c1ccc([N+](=O)[O-])cc1)C(Cl)Cl [Chloramphenicol] | 91.5% | –
Nc1nc(N)c2nc(-c3ccccc3)c(N)nc2n1 [Triamterene] | 111% | –
[H]/N=C(/N)N/C(=N/[H])NCCc1ccccc1 [Phenformin] | 82.3% | –
Cn1cnc([N+](=O)[O-])c1Sc1ncnc2nc[nH]c12 [Azathioprine] | 87.2% | –
Nc1nc(N)c2nc(CNc3ccc(C(=O)N[C@@H](CCC(=O)O)C(=O)O)cc3)cnc2n1 [Aminopterin] | 93% | –
CCc1nc(N)nc(N)c1-c1ccc(Cl)cc1 [Pyrimethamine] | 99.2% | –
O=C1NC(=O)C(c2ccccc2)(c2ccccc2)N1 [Phenytoin] | 75% | –
CNC(C)C1CCC(N)C(OC2C(N)CC(N)C(OC3OCC(C)(O)C(NC)C3O)C2O)O1 (stereo not shown) [Gentamicin] | 81.9% | –
C=C[C@H]1C[N@@]2CC[C@H]1C[C@H]2[C@H](O)c1ccnc2ccc(OC)cc12 [Quinine] | 69.7% | –
Oc1ncnc2[nH]ncc12 [Allopurinol] | 96.9% | –
Nc1ccc(O)c(C(=O)O)c1 [5-aminosalicylic acid] | 87.7% | –
Neomycin | – | Average % SLC19A2 thiamine uptake [1]: 86.37%
COc1cc2c(c(OC)c1OC)-c1ccc(OC)c(=O)cc1[C@@H](NC(C)=O)CC2 [Colchicine] | – | remaining activity at 1000 µM: 95.9%
CC(=O)NC[C@H]1CN(c2ccc(N3CCOCC3)c(F)c2)C(=O)O1 [Linezolid] | 77.7% | –
CN(Cc1cnc2nc(N)nc(N)c2n1)c1ccc(C(=O)N[C@@H](CCC(=O)O)C(=O)O)cc1 [Methotrexate] | 84.9% | –
CN(C)C(=N)N=C(N)N [Metformin] | 74.2% | –
Cc1onc(-c2ccccc2)c1C(=O)N[C@@H]1C(=O)N2[C@@H]1SC(C)(C)[C@@H]2C(=O)O [Oxacillin] | 110% | –

Compound | remaining activity at 1000 µM [1] | other results
CC1(C)S[C@@H]2[C@H](NC(=O)[C@H](N)c3ccc(O)cc3)C(=O)N2[C@H]1C(=O)O [Amoxicillin] | 95.9% | –
[H]/N=C(\N/C(=N/[H])Nc1ccc(Cl)cc1)NC(C)C [Proguanil] | 68.8% | –
Nc1nc2nc[nH]c2c(=S)[nH]1 [Thioguanine] | 93.3% | –
C[C@H]1c2cccc(O)c2C(=O)C2=C(O)[C@]3(O)C(=O)C(C(N)=O)=C(O)[C@@H](N(C)C)[C@@H]3[C@@H](O)[C@@H]21 [Doxycycline] | 67.8% | –
Cc1cnc(Nc2ccc(OCCN3CCCC3)cc2)nc1Nc1cccc(S(=O)(=O)NC(C)(C)C)c1 [Fedratinib] | 21% | inhibition at 1000 µM: ≥ 50%
CNC(=C[N+](=O)[O-])NCCSCc1ccc(CN(C)C)o1 [Ranitidine] | 111% | –
COc1cc(NC(C)CCCN)c2ncccc2c1 (stereo not shown) [Primaquine] | 76.5% | –
Nc1nc(F)nc2c1ncn2[C@@H]1O[C@H](CO)[C@@H](O)[C@@H]1O [Fludarabine] | 71.1% | –
C[C@]12CC[C@@H]3c4ccc(O)cc4CC[C@H]3[C@@H]1CC[C@@H]2O [Estradiol] | 112% | –
CO[C@H]1O[C@@H]2O[C@@]3(C)CC[C@H]4[C@H](C)CC[C@@H]([C@H]1C)[C@@]24OO3 [Artemether] | 67.4% | –
CC[C@H]1OC(=O)[C@H](C)[C@@H](O[C@H]2C[C@@](C)(OC)[C@@H](O)[C@H](C)O2)[C@H](C)[C@@H](O[C@@H]2O[C@H](C)C[C@H](N(C)C)[C@H]2O)[C@](C)(O)C[C@@H](C)CN(C)[C@H](C)[C@@H](O)[C@]1(C)O [Azithromycin] | 81.9% | –
CC1(C)S[C@@H]2[C@H](NC(=O)[C@H](N)c3ccccc3)C(=O)N2[C@H]1C(=O)O [Ampicillin] | – | remaining activity at 1000 µM: 102%
CN(C)[C@@H]1C(O)=C(C(N)=O)C(=O)[C@@]2(O)C(O)=C3C(=O)c4c(O)cccc4[C@@](C)(O)[C@H]3C[C@@H]12 [Tetracycline] | 83.6% | –
O=C1CN(/N=C/c2ccc([N+](=O)[O-])o2)C(=O)N1 [Nitrofuranatoin] | – | Average % SLC19A2 thiamine uptake [1]: 101.075%
CC[C@H]1OC(=O)[C@H](C)[C@@H](O[C@H]2C[C@@](C)(OC)[C@@H](O)[C@H](C)O2)[C@H](C)[C@@H](O[C@@H]2O[C@H](C)C[C@H](N(C)C)[C@H]2O)[C@](C)(OC)C[C@@H](C)C(=O)[C@H](C)[C@@H](O)[C@]1(C)O [Clarithromycin] | 58.2% | –
Cc1c(OCC(F)(F)F)ccnc1C[S+]([O-])c1nc2ccccc2[nH]1 (stereo not shown) [Lansoprazole] | 45.9% | inhibition at 1000 µM: ≥ 50%
CCCCN(CCCC)CC(O)c1cc(Cl)cc2c1-c1ccc(Cl)cc1/C2=C/c1ccc(Cl)cc1 (stereo not shown) [Lumafantrine] | – | Average % SLC19A2 thiamine uptake [1]: 87.72%
C/C(O)=C(\C#N)C(=O)Nc1ccc(C(F)(F)F)cc1 [Teriflunomide] | 95.7% | –
COCCCOc1ccnc(C[S+]([O-])c2nc3ccccc3[nH]2)c1C (stereo not shown) [Rabeprazole] | 75.3% | –
COc1c(C)c2c(c(O)c1C/C=C(\C)CCC(=O)O)C(=O)OC2 [Mycophenolic acid] | 82.7% | –
O=c1[nH]cc(F)c(=O)[nH]1 [5-fluorouracil] | 93.8% | –
COc1ccc2nc([S@@+]([O-])Cc3ncc(C)c(OC)c3C)[nH]c2c1 [Esomeprazole] | 57.7% | –
NC(N)=Nc1nc(CSCCC(N)=NS(N)(=O)=O)cs1 [Famotidine] | 74% | –
CO[C@H]1/C=C/O[C@@]2(C)Oc3c(C)c(O)c4c(O)c(c(/C=N/N5CCN(C)CC5)c(O)c4c3C2=O)NC(=O)/C(C)=C\C=C\[C@H](C)[C@H](O)[C@@H](C)[C@@H](O)[C@@H](C)[C@H](OC(C)=O)[C@@H]1C [Rifampicin] | 56.1% | –
COc1ncnc(NS(=O)(=O)c2ccc(N)cc2)c1OC [Sulfadoxine] | 94.8% | –
NCC[C@H](O)C(=O)N[C@@H]1C[C@H](N)[C@@H](O[C@H]2O[C@H](CN)[C@@H](O)[C@H](O)[C@H]2O)[C@H](O)[C@H]1O[C@H]1O[C@H](CO)[C@@H](O)[C@H](N)[C@H]1O [Amikacin] | 98.7% | –
